# Data: patent publication US7011826B1, “Control of acidosis” (priority 1999, dated 2006)
# Experiments:
# [1] = tested on: dogs; assay: Virginiamycin dose trial in dogs fed tinned dog food with added raftilose (faecal measurements); type: in vivo; parameters: faecal Dry matter / faecal Total VFA: unit not given here; settings: for faecal pH: raftilose diet; for faecal Consistency score: 5 = firm, normal faeces and 1 = diarrhoea
# Experimental: The main objective of this trial was to investigate various doses of virginiamycin in terms of its effect on faecal consistency and hind gut fermentation.
# Design: There were 4 treatment groups consisting of unmedicated control, and virginiamycin at 3 levels: 0.25, 0.5 and 1 mg/kg body weight. Dogs were acclimatised to a dict based on the tinned ‘No Frills’ dog food for approximately 2 weeks prior to a seven-day treatment period in which fructo-oligosaccharide raftilose was added to the diet at a rate of 3.5 g/kg metabolic body weight. There were five dogs per treatment.
# Measurements were made of faecal pH, dry matter, consistency and chemical assays were conducted to measure VFA, D-lactic acid and L-lactic acid.
# [2] = tested on: Clostridium-like isolates; assay: Virginiamycin sensitivity test, VM added 3 and 6 h after inoculation; type: cell-based, Clostridium-like vitulinus
# Experimental: (§1) Two isolates of S. bovis from cattle and sheep (orange pigmented and white), five Clostridium-like vitulinus and three isolates of S. ruminantium were incubated in a branch of basal medium 10 with glucose (0.5%) and virginiamycin (VM) at a concentrations of 0, 2, 4, 6 and 8 μg/ml. The virginiamycin solution (100 μg VM/ml) was prepared using Eskalin Wettable Powder (WP), 400 g/kg VM (Pfizer Animal Health, NSW, Australia). The WP was dissolved in distilled water (previously boiled and bubbled with nitrogen until cooled) and filter-sterilised whilst being gassed with nitrogen. This solution was used immediately after preparation. […] The broth-media was inoculated by 0.2 ml of the different fresh viable cultures and 0.1–0.4 ml of VM solution was added to each tube to provide the required dose. A sensitivity test was also performed when VM was added 3 and 6 h after inoculation, using the same concentrations of VM. Tests for sensitivity to VM were conducted using […] of anaerobic incubation at 39° C.
# [3] = tested on: Clostridium-like vitulinus (LV R2); assay: Virginiamycin sensitivity test (broth growth); type: cell-based; settings: Basal Medium 10 with glucose (0.5%)
# Experimental: as §1
# [4] = tested on: Clostridium-like vitulinus (LV R5); assay: Virginiamycin sensitivity test (broth growth); type: cell-based; settings: Basal Medium 10 with glucose (0.5%)
# Experimental: as §1
# [5] = tested on: S. ruminantium (SR R1, SR R2 and SR R3); assay: Virginiamycin sensitivity test (broth growth); type: cell-based; settings: Basal Medium 10 with glucose (0.5%)
# Experimental: as §1
# [6] = tested on: Clostridium-like vitulinus (LV R1); assay: Virginiamycin sensitivity test (broth growth); type: cell-based; settings: Basal Medium 10 with glucose (0.5%)
# Experimental: as §1
# [7] = tested on: Clostridium-like vitulinus (LV R4); assay: Virginiamycin sensitivity test (broth growth); type: cell-based; settings: Basal Medium 10 with glucose (0.5%)
# Experimental: as §1
# [8] = tested on: Clostridium-like vitulinus (LV R3); assay: Virginiamycin sensitivity test (broth growth); type: cell-based; settings: Basal Medium 10 with glucose (0.5%)
# Experimental: as §1
# [9] = tested on: dogs; assay: Faecal characteristics of dog fed dry dog food with virginiamycin; type: in vivo; settings: one dog, virginiamycin 0.5 mg/kg body weight for 7 days
# Experimental: Two dogs were fed a commercial dry dog food for 4 weeks before and then during the experimental period. Virginiamycin (Eskalin 20) was added to the diet of one dog for a period of 7 days prior to faecal sampling to provide 0.5 mg/kg body weight. Samples of faeces were taken for the analysis of pH and lactic acid concentrations at the same time as those taken for isolation of lactic acid producing bacteria.
# [10] = VM 0.25, 0.5 and 1 mg/kg body weight
substance,measurement,setting,value
virginiamycin,faecal D-lactic acid concentration,[1]; VM 0.25 mg/kg body weight,0.2
same,faecal Dry matter,[1]; VM 0.25 mg/kg body weight,22.0
same,faecal L-lactic acid concentration,[1]; VM 0.25 mg/kg body weight,2.2
same,faecal Total VFA,[1]; VM 0.25 mg/kg body weight,80.5
same,faecal pH,[1]; VM 0.25 mg/kg body weight,5.2
same,faecal Consistency score,[1]; VM 0.25 mg/kg,3.6
same,faecal D-lactic acid concentration,[1]; VM 0.5 mg/kg body weight,0.4
same,faecal Dry matter,[1]; VM 0.5 mg/kg body weight,22.5
same,faecal L-lactic acid concentration,[1]; VM 0.5 mg/kg body weight,13.8
same,faecal Total VFA,[1]; VM 0.5 mg/kg body weight,93.7
same,faecal pH,[1]; VM 0.5 mg/kg body weight,4.9
same,faecal Consistency score,[1]; VM 0.5 mg/kg,3.7
same,faecal D-lactic acid concentration,[1]; VM 1.0 mg/kg body weight,0.3
same,faecal Dry matter,[1]; VM 1.0 mg/kg body weight,24.2
same,faecal L-lactic acid concentration,[1]; VM 1.0 mg/kg body weight,11.8
same,faecal Total VFA,[1]; VM 1.0 mg/kg body weight,73.5
same,faecal pH,[1]; VM 1.0 mg/kg body weight,4.9
same,faecal Consistency score,[1]; VM 1.0 mg/kg,3.8
same,effect on L-lactic,[1]; [10],little effect
same,"effect on the pH, faecal consistency, dry matter content and VFA concentrations",[1]; [10],little effect
same,effect on concentration of d-lactic acid,[1]; all levels of inclusion,reduce the concentration of d-lactic acid
same,MIC compared with VM added immediately after inoculation,[2]; cultures growing 3 h before addition of VM,higher MIC
same,highest VM level to which isolates were resistant,"[2]; cultures grown 6 h before addition of VM, all Clostridium-like isolates",8 µg/mL
same,VM level the isolate resisted up to,[3],4 µg/mL
same,MIC level,[4],2 µg/mL
same,highest VM level to which isolates were resistant,[5],8 µg/mL
same,MIC level,[6],2 µg/mL
same,VM level the isolate resisted up to,[7],6 µg/mL
same,VM level the isolate resisted up to,[8],4 µg/mL
same,D(−)Lactate in faeces,[9],0.45 mmol/L
same,L(+)Lactate in faeces,[9],0.34 mmol/L
same,faecal pH,[9],5.34
